Test results published in patent US20240252456A1, “ORAL COMPOSITION, SKIN COSMETIC AND HAIR COSMETIC” (MARUZEN PHARMACEUTICALS CO., LTD., priority 2021, published 2024).

What was measured:
[1] = test system: Normal human dermal fibroblasts (NB1RGB); assay: Elastin production promotive action test; type: cell-based; conditions: 5 days
Method: (§1) Normal human dermal fibroblasts (NB1RGB) were cultured using Dulbecco's modified Eagle's medium (DMEM) containing 10% FBS, and then the cells were collected by a trypsin treatment. The collected cells were diluted with the above medium to a cell density of 2.2×10^5 cells/mL, then seeded with 100 μL per well in a 96-well microplate, and cultured overnight.
After the culturing was completed, the medium was removed, and 150 μL of each of test samples (Samples 2 and 3, see Table 7 below for final concentrations) dissolved in DMEM containing 0.25% FBS was added to each well, and culturing was performed for 5 days. As a control, culturing was performed in the same manner using DMEM containing 0.25% FBS to which no sample was added. After the culturing was completed, the supernatant was recovered, and the amount of elastin released in the culture supernatant was measured by ELISA method. From the measurement results, the elastin production promotion rate (%) was calculated using the following equation.
Terms in the equation represent the following respective ones. • A: Elastin amount with test sample addition • B: Elastin amount without sample addition

OCLN mRNA = assay: Occludin (OCLN) mRNA expression promotive action test; type: cell-based, human; conditions: NHEK, 24 hours, corrected with GAPDH
Method: Normal human neonatal epidermal keratinocytes (NHEK) were precultured using normal human epidermal keratinocyte growth medium (KGM), and the cells were collected by a trypsin treatment. The collected cells were diluted with KGM to a cell density of 15×10^4 cells/mL, then seeded with 2 mL portions in a 6-well plate (30×10^4 cells/well), and cultured overnight under conditions of 37° C. and 5% CO2. After culturing, the medium was replaced with normal human epidermal keratinocyte basal medium (KBM, the above KGM without addition of growth additives (hEGF, BPE, insulin, antibacterial agents, hydrocortisone)), and culturing was further performed for 24 hours.
After culturing for 24 hours, the medium was removed, and 2 mL of each of test samples (Samples 1 and 3, see Table 20 below for final concentrations) dissolved in KBM was added to each well, and culturing was performed under conditions of 37° C. and 5% CO2 for 24 hours. As a control, culturing was performed in the same manner using KBM to which no sample was added. After culturing, the medium was removed, total RNA was extracted using ISOGEN II (available from NIPPON GENE CO., LTD.), each RNA amount was measured using a spectrophotometer, and the total RNA was prepared so as to be 150 ng/μL.
For OCLN and GAPDH as an internal standard, the expression levels of mRNA were measured using the above total RNA as a template. Detection was performed through a two-step real-time RT-PCR reaction using a real-time PCR device, Thermal Cycler Dice Real Time System III (available from Takara Bio Inc.), with PrimeScript™ RT Master Mix (Perfect Real Time) (available from Takara Bio Inc.) and TB Green® Fast qPCR Mix (available from Takara Bio Inc.). Primers available from Takara Bio Inc. were used. The expression level of OCLN mRNA was obtained as a value corrected with a value of GAPDH based on total RNA preparations prepared from cells cultured “with test sample addition” and “without sample addition.” From the obtained values, the OCLN mRNA expression promotion rate (%) was calculated using the following equation. […]

[2] = test system: Normal human dermal fibroblasts (NB1RGB); assay: Hyaluronic acid production promotive action test; type: cell-based; conditions: 3 days, A/B×100 vs no sample
Method: as §1, with “DMEM containing 0.25% FBS” for “the above medium”, “1.6×10^5” for “2.2×10^5”, “plate,” for “microplate,”
After the culturing was completed, 100 μL of each of test samples (Samples 1 and 2, see Table 9 below for final concentrations) dissolved in DMEM containing 0.25% FBS was added to each well, and culturing was performed for 3 days. As a control, culturing was performed in the same manner using DMEM containing 0.25% FBS to which no sample was added. After the culturing was completed, the amount of hyaluronic acid in the medium of each well was measured by a sandwich method using hyaluronic acid binding protein (HABP). From the obtained results, the hyaluronic acid production promotion rate (%) was calculated using the following equation.
Hyaluronic acid production promotion rate (%)=A/B×100
Terms in the equation represent the following respective ones. • A: Hyaluronic acid amount with test sample addition • B: Hyaluronic acid amount without sample addition

AGEs = assay: Advanced glycation end product (AGEs) formation suppressive action test; conditions: type I collagen-coated plate, 0.2M D(−)-ribose, 37° C., 20 days
Method: In a 96-well type I collagen-coated plate (available from AGC Inc.), 100 μL of a mixed solution of 0.2M D(−)-ribose prepared with PBS(−) buffer solution and each of test samples (Samples 1 and 2, see Table 22 below for final concentrations) were added and statically placed at 37° C. for 20 days to form AGEs. In addition, PBS(−) buffer solution only as a negative control and a 0.2M D(−)-ribose solution prepared with PBS(−) buffer solution as a positive control were statically placed in the same manner. After 20 days, the amount of AGEs was measured by the ELISA method using an anti-AGEs antibody (available from TPANS GENIC INC.), and the AGEs formation suppressive action was evaluated. From the obtained results, the AGEs formation suppression rate (%) was calculated using the following equation.
Terms in the equation represent the following respective ones. • A: Absorbance at wavelength 405 nm in negative control • B: Absorbance at wavelength 405 nm in positive control • C: Absorbance at wavelength 405 nm with test sample addition

SMILES | Elastin production promotion rate ([1]; 62.5 μmol/L) | Elastin production promotion rate ([1]; 250 μmol/L) | OCLN mRNA expression promotion rate (OCLN mRNA; 25 μmol/L) | Hyaluronic acid production promotion rate ([2]; 25 μmol/L) | OCLN mRNA expression promotion rate (OCLN mRNA; 100 μmol/L) | AGEs formation suppression rate (AGEs; 125 μmol/L) | AGEs formation suppression rate (AGEs; 500 μmol/L) | AGEs formation suppression rate (AGEs; 2000 μmol/L) | Elastin production promotion rate ([1]; 15.6 μmol/L) | Hyaluronic acid production promotion rate ([2]; 50 μmol/L) | Hyaluronic acid production promotion rate ([2]; 100 μmol/L) | Hyaluronic acid production promotion rate ([2]; 200 μmol/L)
O=C(O)CCc1ccccc1 [Sample 3, 3-phenylpropionic acid] | 174.0% | 239.0% | 141.5% |  |  |  |  |  |  |  |  | 
O=C(O)CCc1ccc(O)c(O)c1 [Sample 1, 3,4-Dihydroxyhydrocinnamic acid] |  |  | 209.9% | 124.2% | 557.3% | 45.7% | 69.4% | 78.4% |  |  |  | 
O=C(O)CCc1ccc(O)cc1 [Sample 2, 3-(4-Hydroxyphenyl)propionic acid] | 147.6% | 189.3% |  |  |  |  |  | 13.3% | 145.4% | 121.8% | 119.3% | 111.7%
